Test results from patent publication US20230303552A1, “ARYLSULFONYL DERIVATIVES AND THEIR USE AS MUSCARINIC ACETYLCHOLINE RECEPTOR M5 INHIBITORS” (Vanderbilt University, priority 2020, published 2023).

Molecular target: T1, human M5 receptors (hM5) (Homo sapiens, UniProt P08912)
T1 construct: expressed in transfected cells
T1 sequence (P08912 1-532): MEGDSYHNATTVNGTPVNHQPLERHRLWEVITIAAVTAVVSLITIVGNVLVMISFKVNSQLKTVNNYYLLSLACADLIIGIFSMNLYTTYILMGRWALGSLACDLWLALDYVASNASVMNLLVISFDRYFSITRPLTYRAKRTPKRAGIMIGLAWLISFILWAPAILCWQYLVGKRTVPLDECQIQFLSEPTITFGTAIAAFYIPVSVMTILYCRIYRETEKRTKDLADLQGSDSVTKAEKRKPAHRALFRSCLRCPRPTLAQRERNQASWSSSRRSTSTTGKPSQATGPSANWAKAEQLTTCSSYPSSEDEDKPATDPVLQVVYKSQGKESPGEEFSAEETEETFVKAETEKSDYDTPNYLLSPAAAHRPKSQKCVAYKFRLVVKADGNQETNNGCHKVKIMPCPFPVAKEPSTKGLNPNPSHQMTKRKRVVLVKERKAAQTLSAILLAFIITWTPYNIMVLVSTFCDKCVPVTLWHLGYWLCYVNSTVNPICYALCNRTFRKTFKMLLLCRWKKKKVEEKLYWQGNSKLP
Experiment: Cell-based functional calcium mobilization assay of mAChR M5 activity (inhibition of EC80 acetylcholine response) in CHO cells
Settings: CHO cells stably expressing hM5; for IC50: calcium flux (Fluo-4), EC80 acetylcholine addition; for EC80 MIN: minimum of EC80 acetylcholine response, normalized to maximum acetylcholine response
Experimental: All functional cell-based assays were performed essentially as previously described (Marlo et al., Mol.Pharm. 2009, 75(3), 577-588; Brady et al., J. Pharm. & Exp. Ther. 2008, 327, 941-953). Initial, single point (10 µM) competitive and non-competitive inhibitor characterization was performed in stable Chinese Hamster Ovary (CHO) cell lines constitutively expressing human M5 receptors. These were plated at 15,000 cells per 20 µL per well in Greiner 384-well black-walled, TC-treated, clear-bottomed plates (Fisher) in Ham’s F12 medium supplemented with 10% FBS and 20 mM HEPES. Cells were incubated overnight at 37° C. under 5% CO2. The following day, medium was exchanged with assay buffer (Hank’s Balanced Salt Solution supplemented with 20 mM HEPES and 2.5 mM Probenecid, pH 7.4) leaving 20 µL of assay buffer in each well. This was followed by the addition of 20 µL of 2.3 µM of Fluo-4 AM (Invitrogen) in assay buffer (final concentration 1.15 µM). The cells were then incubated 50 minutes at 37° C. under 5% CO2. The assay buffer plus dye was then exchanged with fresh assay buffer leaving a volume of 20 µL in each well. Test compounds were diluted into assay buffer to a 2X (20 µM) concentration in 0.2% dimethylsulfoxide (DMSO) in columns 3 - 22 with matching DMSO concentration in columns 1, 2, 23, and […]; compounds were added to the assay for a final concentration of 10 µM and a final DMSO concentration of 0.1%. Acetylcholine (Sigma-Aldrich) was prepared to provide 5X concentrations of EC20, EC80, and ECmax in the triple-addition assay, providing a signal window to view agonism, potentiation, and inhibition of the acetylcholine response as well as a means to normalize to the maximum acetylcholine response.
Either an FDSS (Hamamatsu) or Panoptic (WaveFront Biosciences) kinetic imaging plate reader was used for assay execution and measurement of calcium flux. After establishing baseline fluorescence, test compounds (20 µL) were added to the cells using the reader’s integrated pipettor and allowed to equilibrate for 140 seconds before addition of the EC20 concentration of acetylcholine (10 µL) along with vehicle in selected DMSO-only wells in the outer two columns. The EC80 concentration of acetylcholine (10 µL) was added 125 seconds after the EC20 addition along with ECmax concentration in the wells receiving vehicle in the second addition. The raw fluorescence data from each well was normalized to the corresponding initial fluorescence reading (static ratio). The maximum fluorescence value following each addition was determined and the minimum value within that same timeframe was subtracted for each well then normalized to the average of the ECmax maximum-minimum response, providing a %AChmax value for each addition for each well. The single point values represent mean values determined within the EC80 addition timeframe obtained from at least three independent determinations performed in triplicate or greater (error bars represent +/- SEM) unless otherwise specified.
Further characterization of competitive and non-competitive inhibitor compounds (compound potency and mAChR subtype-selectivity) was performed on the FDSS with calcium mobilization assays performed as previously described (Marlo et al., 2009; Brady et al., 2008) and in a format similar to that described above using the same reagents. CHO cells stably expressing hM1, hM2/Gqi5, hM3, hM4/Gqi5, hM5, rM1, rM2/Gqi5, rM3, rM4/Gqi5, or rMs were plated in the manner described above. A ten-point concentration range of test compound was serial diluted in assay buffer to 2X final concentration and acetylcholine was diluted in assay buffer to 5X of the EC20 and EC80 concentrations, determined empirically and 5X maximal (2 mM final concentration) stock concentrations. FDSS protocols were carried out as described above; the static ratio was calculated and the minimum response subtracted from the maximum response within the timeframe of each addition. […]

Row | SMILES | IC50 [nM] | EC80 MIN [%]
1 | C[C@H]1CN(S(=O)(=O)c2ccc3ncsc3c2)CC[C@@H]1C(=O)Nc1ccc2scnc2c1 (racemic) [Compound 117, trans-(rac)-N-(benzo[d]thiazol-5-yl)-1-(benzo[d]thiazol-6-ylsulfonyl)-3-methylpiperidine-4-carboxamide] | 8920 | 5
2 | C[C@H]1CN(S(=O)(=O)c2ccc(Cl)nc2)CC[C@@H]1C(=O)Nc1ccc2scnc2c1 (racemic) [Compound 118, trans-(rac)-N-(benzo[d]thiazol-5-yl)-1-((6-chloropyridin-3-yl)sulfonyl)-3-methylpiperidine-4-carboxamide] | 803 | 4
3 | O=C(Nc1ccc2scnc2c1)C1CCN(S(=O)(=O)c2ccc(Cl)s2)CC1 [Compound 1, N-(benzo[d]thiazol-5-yl)-1-((5-chlorothiophen-2-yl)sulfonyl)piperidine-4-carboxamide] | 2740 | 3
4 | O=C(Nc1ccc2scnc2c1)C1CCN(S(=O)(=O)c2ccc3c(c2)CCO3)CC1 [Compound 2, N-(benzo[d]thiazol-5-yl)-1-((2,3-dihydrobenzofuran-5-yl)sulfonyl)piperidine-4-carboxamide] | 72 | 2
5 | O=C(Nc1ccc2scnc2c1)C1CCN(S(=O)(=O)c2ccc3ncsc3c2)CC1 [Compound 3, N-(benzo[d]thiazol-5-yl)-1-(benzo[d]thiazol-6-ylsulfonyl)piperidine-4-carboxamide] | 670 | 5
6 | O=C(Nc1ccc2scnc2c1)C1CCN(S(=O)(=O)c2ccc3ncccc3c2)CC1 [Compound 4, N-(benzo[d]thiazol-5-yl)-1-(quinolin-6-ylsulfonyl)piperidine-4-carboxamide] | 959 | 2
7 | Cc1nn(C)cc1S(=O)(=O)N1CCC(C(=O)Nc2ccc3scnc3c2)CC1 [Compound 5, N-(benzo[d]thiazol-5-yl)-1-((1,3-dimethyl-1H-pyrazol-4-yl)sulfonyl)piperidine-4-carboxamide] | 304 | 2
8 | O=C(Nc1ccc2scnc2c1)C1CCN(S(=O)(=O)c2ccc(Cl)nc2)CC1 [Compound 7, N-(benzo[d]thiazol-5-yl)-1-((6-chloropyridin-3-yl)sulfonyl)piperidine-4-carboxamide] | 184 | 4
9 | O=C(Nc1ccc2scnc2c1)C1CCN(S(=O)(=O)c2ccsc2)CC1 [Compound 8, N-(benzo[d]thiazol-5-yl)-1-(thiophen-3-ylsulfonyl)piperidine-4-carboxamide] | > 10000 | 23
10 | N#Cc1cc(S(=O)(=O)N2CCC(C(=O)Nc3ccc4scnc4c3)CC2)ccc1Cl [Compound 9, N-(benzo[d]thiazol-5-yl)-1-((4-chloro-3-cyanophenyl)sulfonyl)piperidine-4-carboxamide] | > 10000 | 38

The next lines start with the values.

Row | IC50 [nM] | EC80 MIN [%] | SMILES
11 | 982 | 4 | C[C@H]1CN(S(=O)(=O)c2cccnc2)CC[C@@H]1C(=O)Nc1ccc2scnc2c1 (racemic) [Compound 119, trans-(rac)-N-(benzo[d]thiazol-5-yl)-3-methyl-1-(pyridin-3-ylsulfornyl)piperidine-4-carboxamide]
12 | 275 | 3 | C[C@@H]1C[C@@H](C(=O)Nc2ccc3scnc3c2)CCN1S(=O)(=O)c1ccc(Cl)nc1 (racemic) [Compound 120, trans-(rac)-N-(benzo[d]thiazol-5-yl)-1-((6-chloropyridin-3-yl)sulfonyl)-2-methylpiperidine-4-carboxamide]
13 | 449 | 3 | C[C@@H]1C[C@@H](C(=O)Nc2ccc3scnc3c2)CCN1S(=O)(=O)c1cccc2nsnc12 (racemic) [Compound 121, trans-(rac)-1-(benzo[c][1,2,5]thiadiazol-4-ylsulfonyl-N-(benzo[d]thiazol-5-yl)-2-methylpiperidine-4-carboxamide]
14 | 94 | 3 | C[C@@H]1C[C@@H](C(=O)Nc2ccc3scnc3c2)CCN1S(=O)(=O)c1ccc2c(c1)CCO2 (racemic) [Compound 122, trans-(rac)-N-(benzo[d]thiazol-5-yl)-1-((2.3-dihydrobenzofuran-5-yl)sulfonyl)-2-methylpiperidine-4-carboxamide]
15 | 174 | 3 | Cc1nn(C)cc1S(=O)(=O)N1CC[C@H](C(=O)Nc2ccc3scnc3c2)C[C@H]1C (racemic) [Compound 123, trans-(rac)-N-(benzo[d]thiazol-5-yl)-1-((1,3-dimethyl-1H-pyrazol-4-yl)sulfonyl)-2-methylpiperidine-4-carboxamide]
16 | > 10000 | 62 | CC1(C)COc2ccc(S(=O)(=O)N3CC4CC4(C(=O)Nc4ccc5scnc5c4)C3)cc21 (racemic) [Compound 130, (rac)-N-(benzo[d]thiazol-5-yl)-3-((3,3-dimethyl-2,3-dihydrobenzofuran-5-yl)sulfonyl)-3-azabicyclo[3.1.0)hexane-1-carboxamide]
17 | 109 | 3 | CC1COc2ccc(S(=O)(=O)N3CCC(C(=O)Nc4ccc5scnc5c4)CC3)cc21 (racemic) [Compound 131, (rac)-N-(benzo[d]thiazol-5-yl)-1-((3-methyl-2,3-dihydrobenzofuran-5-yl)sulfonyl)piperidine-4-carboxamide]
18 | 580 | 3 | C[C@@H]1C[C@@H](C(=O)Nc2ccc3scnc3c2)CCN1S(=O)(=O)c1ccc2ncsc2c1 (racemic) [Compound 134, trans-(rac)-N-(benzo[d]thiazol-5-yl)-1-(benzo[d]thiazol-6-ylsulfonyl)-2-methylpiperidine-4-carboxamide]
19 | 1370 | 3 | Cc1cc2c(cc1S(=O)(=O)N1CCC(C(=O)Nc3ccc4scnc4c3)CC1)C(C)CO2 (racemic) [Compound 145, (rac)-N-(benzo[d]thiazol-5-yl)-1-((3,6-dimethyl-2,3-dihydrobenzofuran-5-yl)sulfonyl)piperidine-a-carboxamide]
20 | 10 | 2 | Cn1ncc(S(=O)(=O)N2CC[C@H](C(=O)Nc3ccc4scnc4c3)[C@@H](F)C2)c1Cl (racemic) [Compound 159, trans-(rac)-N-(benzo[d]thiazol-5-yl)-1-((5-chloro-1-methyl-1H-pyrazol-4-yl)sulfonyl)-3-fluoropiperidine-4-carboxamide]
21 | 13 | 2 | Cc1ncc(S(=O)(=O)N2CC[C@H](C(=O)Nc3ccc4scnc4c3)[C@@H](F)C2)s1 (racemic) [Compound 160, trans-(rac)-N-(benzo[d]thiazol-5-yl)-3-fluoro-1-((2-methylthiazol-5-yl)sulfonyl)piperidine-4-carboxamide]
